Experimental data taken from US20110201818A1, “POLO-LIKE KINASE INHIBITORS” (TAKEDA PHARMACEUTICAL COMPANY LIMITED, priority 2007, published 2011).

Molecular target: T1, human PLK1 (Homo sapiens, UniProt P53350)
T1 construct: FLAG (DYKDDDDK) (N); made in house; host or cells: Sf21 insect cells, recombinant baculovirus (pFASTBAC1, Bac-to-Bac)
Test: PLK1 in vitro enzymatic activity assay (phosphorylation of alpha casein by recombinant PLK1)
Assay type: biochemical
Conditions: not given
Method: PCR was performed using the vector as a template. […] After XbaI and XhoI digestion of the PCR product, the fragment was subcloned into pFASTBAC1 (Invitrogen, USA). Recombinant baculoviruses were prepared according to the procedure of the Bac-to-Bac baculovirus expression system (Invitrogen, USA). Sf21 cells were purchased from Invitrogen and grown in Sf-900 II SFM medium containing 10% fetal bovine serum, 50 μg/mL gentamicin and 0.1% pluronic F-68 (Invitrogen, USA) at 28° C. For preparation of PLK1 enzyme, Sf21 cells were infected with recombinant baculoviruses and cultured at 28° C. for 72 h.
The inhibition of PLK1 by the compounds was determined with the following assay that measures the phosphorylation of alpha casein by recombinant PLK1. Kinase reactions were performed at room temperature for 40 min in the kinase reaction buffer (25 mmol/L HEPES, pH 7.5, 10 mmol/L magnesium acetate, 1 mmol/L dithiothreitol) containing 50 ng PLK1 enzyme, 0.1 μCi [γ-^32P]ATP, 500 nmol/L ATP and 3 μg alpha casein (MP Biomedicals Inc., USA) in a final volume of 50 μL. The incubation was terminated by the addition of 10% trichloroacetic acid (Wako, Japan). Phosphorylated proteins were filtrated in GF/C filter plates (Packard, USA) with a Cell harvester (Packard, USA) and washed out free [γ-^32P]-ATP with 250 mmol/L phosphoric acid. Then, the plates were air dried for 60 min at 45° C., followed by the addition of 20 μL of MicroScint-O (Packard, USA). The radioactivity was counted by a Top-count scintillation counter (Packard, USA).

T1 sequence (P53350 with tags, fused parts or gaps): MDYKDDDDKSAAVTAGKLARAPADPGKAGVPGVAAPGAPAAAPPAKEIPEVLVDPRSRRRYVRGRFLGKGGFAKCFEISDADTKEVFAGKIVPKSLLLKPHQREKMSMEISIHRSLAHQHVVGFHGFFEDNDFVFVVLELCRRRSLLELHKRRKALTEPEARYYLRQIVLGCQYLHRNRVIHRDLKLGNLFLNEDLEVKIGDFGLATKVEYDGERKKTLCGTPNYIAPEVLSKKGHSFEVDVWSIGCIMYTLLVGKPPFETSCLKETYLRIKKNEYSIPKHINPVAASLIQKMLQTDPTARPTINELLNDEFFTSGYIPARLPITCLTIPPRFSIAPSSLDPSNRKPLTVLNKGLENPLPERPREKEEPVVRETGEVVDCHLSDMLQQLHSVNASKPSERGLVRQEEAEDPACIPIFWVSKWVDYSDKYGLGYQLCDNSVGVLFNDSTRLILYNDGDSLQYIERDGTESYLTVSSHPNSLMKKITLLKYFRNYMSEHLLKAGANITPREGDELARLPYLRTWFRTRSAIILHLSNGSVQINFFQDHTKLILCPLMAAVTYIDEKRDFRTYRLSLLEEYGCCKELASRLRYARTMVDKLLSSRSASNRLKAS

**Q.** Which IC50 does the source give for `CCN1CCN(NC(=O)c2ccc(Nc3ncc4c(n3)N(C3CCCCC3)CC(F)(F)C(=O)N4C)c(OC)c2)CC1` [Compound 78, 4-(9-cyclohexyl-7,7-difluoro-5-methyl-6-oxo-6,7,8,9-tetrahydro-5H-pyrimido[4,5-b][1,4]diazepin-2-ylamino)-N-(4-ethylpiperazin-1-yl)-3-methoxybenzamide] here?
**A.** The IC50 was at most 2 nM.

Same assay, conditions: recombinant FLAG-tagged PLK1, alpha casein substrate, 500 nmol/L ATP, 40 min at room temperature; read-out: pIC50 (PLK1) (converted)

**Q.** How did the IC50 turn out when `COc1cc(C(=O)NCCN2CCCC2)ccc1Nc1ncc2c(n1)N(C1CCCCC1)CC(F)(F)C(=O)N2C` [Compound 56, 4-(9-cyclohexyl-7,7-difluoro-5-methyl-6-oxo-6,7,8,9-tetrahydro-5H-pyrimido[4,5-b][1,4]diazepin-2-ylamino)-3-methoxy-N-(2-(pyrrolidin-1-yl)ethyl)benzamide] was run?
**A.** The IC50 was over 2 nM.

**Q.** With `COc1cc(C(=O)O)c(F)cc1Nc1ncc2c(n1)N(C1CCCC1)CC(F)(F)C(=O)N2C` [Compound 31, 4-(9-Cyclopentyl-7,7-difluoro-5-methyl-6-oxo-6,7,8,9-tetrahydro-5H-pyrimido[4,5-b][1,4]diazepin-2-ylamino)-2-fluoro-5-methoxybenzoic acid] as the molecule, how does the IC50 read?
**A.** The IC50 was at most 2 nM.

**Q.** For `COc1cc(C(=O)NN2CCN(C(=O)CN(C)C)CC2)ccc1Nc1ncc2c(n1)N(C1CCCCC1)CC(F)(F)C(=O)N2C` [Compound 81, 4-(9-cyclohexyl-7,7-difluoro-5-methyl-6-oxo-6,7,8,9-tetrahydro-5H-pyrimido[4,5-b][1,4]diazepin-2-ylamino)-N-(4-(2-(dimethylamino)acetyl)piperazin-1-yl)-3-methoxybenzamide], which IC50 is on record?
**A.** The IC50 was at most 2 nM.

**Q.** How did the IC50 turn out when `COc1cc(C(=O)NC2CCN(C(=O)CN(C)C)CC2)c(F)cc1Nc1ncc2c(n1)N(C1CCCC1)CC(F)(F)C(=O)N2C` [Compound 118, 4-(9-Cyclopentyl-7,7-difluoro-5-methyl-6-oxo-6,7,8,9-tetrahydro-5H-pyrimido[4,5-b][1,4]diazepin-2-ylamino)-N-(1-(2-(dimethylamino)acetyl)piperidin-4-yl)-2-fluoro-5-methoxybenzamide] was run?
**A.** The IC50 was over 2 nM.

**Q.** `COc1cc(C(=O)NC2CCNCC2)ccc1Nc1ncc2c(n1)N(C1CCCCC1)CC(F)(F)C(=O)N2C` [Compound 70, 4-(9-cyclohexyl-7,7-difluoro-5-methyl-6-oxo-6,7,8,9-tetrahydro-5H-pyrimido[4,5-b][1,4]diazepin-2-ylamino)-3-methoxy-N-(piperidin-4-yl)benzamide] was tested. Which IC50 did it give?
**A.** Its IC50 is at most 2 nM.

**Q.** For `CN1CCC(NC(=O)c2ccc(Nc3ncc4c(n3)N(C3CCCC3)CC(F)(F)C(=O)N4C)c(Cl)c2)CC1` [Compound 24, 3-Chloro-4-(9-cyclopentyl-7,7-difluoro-5-methyl-6-oxo-6,7,8,9-tetrahydro-5H-pyrimido[4,5-b][1,4]diazepin-2-ylamino)-N-(1-methylpiperidin-4-yl)benzamide], which IC50 is on record?
**A.** The IC50 was over 2 nM.

**Q.** `COc1cc(C(=O)NC2CCOCC2)ccc1Nc1ncc2c(n1)N(C1CCCCC1)CC(F)(F)C(=O)N2C` [Compound 66, 4-(9-cyclohexyl-7,7-difluoro-5-methyl-6-oxo-6,7,8,9-tetrahydro-5H-pyrimido[4,5-b][1,4]diazepin-2-ylamino)-3-methoxy-N-(tetrahydro-2H-pyran-4-yl)benzamide] was tested. Which IC50 did it give?
**A.** The IC50 was at most 2 nM.

**Q.** For `COc1cc(C(=O)NC2CNC2)ccc1Nc1ncc2c(n1)N(C1CCCCC1)CC(F)(F)C(=O)N2C` [Compound 43, N-(azetidin-3-yl)-4-(9-cyclohexyl-7,7-difluoro-5-methyl-6-oxo-6,7,8,9-tetrahydro-5H-pyrimido[4,5-b][1,4]diazepin-2-ylamino)-3-methoxybenzamide], which IC50 is on record?
**A.** The IC50 was at most 2 nM.

**Q.** For `COc1cc(C(=O)N[C@@H]2CCCN(C)C2)ccc1Nc1ncc2c(n1)N(C1CCCCC1)CC(F)(F)C(=O)N2C` [Compound 75, (R)-4-(9-cyclohexyl-7,7-difluoro-5-methyl-6-oxo-6,7,8,9-tetrahydro-5H-pyrimido[4,5-b][1,4]diazepin-2-ylamino)-3-methoxy-N-(1-methylpiperidin-3-yl)benzamide], which IC50 is on record?
**A.** The IC50 was at most 2 nM.

**Q.** With `COc1cc(C(=O)N2CCN(CC3CC3)CC2)ccc1Nc1ncc2c(n1)N(C1CCCC1)CC(F)(F)C(=O)N2C` [Compound 134, 9-cyclopentyl-2-(4-(4-(cyclopropylmethyl)piperazine-1-carbonyl)-2-methoxyphenylamino)-7,7-difluoro-5-methyl-8,9-dihydro-5H-pyrimido[4,5-b][1,4]diazepin-6(7H)-one] as the molecule, how does the IC50 read?
**A.** Its IC50 is over 2 nM.

**Q.** For `CN1C(=O)C(F)(F)CN(C2CCCC2)c2nc(Nc3ccc4[nH]cc(C5=CCNCC5)c4c3)ncc21` [Compound 21, 9-Cyclopentyl-7,7-difluoro-5-methyl-2-(3-(1,2,3,6-tetrahydropyridin-4-yl)-1H-indol-5-ylamino)-8,9-dihydro-5H-pyrimido[4,5-b][1,4]diazepin-6(7H)-one], which IC50 is on record?
**A.** The IC50 was over 2 nM.

**Q.** With `COc1cc(C(=O)NC2CCCNCC2)ccc1Nc1ncc2c(n1)N(C1CCCC1)CC(F)(F)C(=O)N2C` (centres unmarked) [Compound 14, N-(Azepan-4-yl)-4-(9-cyclopentyl-7,7-difluoro-5-methyl-6-oxo-6,7,8,9-tetrahydro-5H-pyrimido[4,5-b][1,4]diazepin-2-ylamino)-3-methoxybenzamide] as the molecule, how does the IC50 read?
**A.** The IC50 was at most 2 nM.

**Q.** With `COc1cc(C(=O)NC2CC2)ccc1Nc1ncc2c(n1)N(C1CCCCC1)CC(F)(F)C(=O)N2C` [Compound 76, 4-(9-cyclohexyl-7,7-difluoro-5-methyl-6-oxo-6,7,8,9-tetrahydro-5H-pyrimido[4,5-b][1,4]diazepin-2-ylamino)-N-cyclopropyl-3-methoxybenzamide] as the molecule, how does the IC50 read?
**A.** Its IC50 is at most 2 nM.

**Q.** For `COc1cc(C(=O)N2CCN(CC3CC3)CC2)c(F)cc1Nc1ncc2c(n1)N(C1CCCC1)CC(F)(F)C(=O)N2C` [Compound 135, 9-cyclopentyl-2-(4-(4-(cyclopropylmethyl)piperazine-1-carbonyl)-5-fluoro-2-methoxyphenylamino)-7,7-difluoro-5-methyl-8,9-dihydro-5H-pyrimido[4,5-b][1,4]diazepin-6(7H)-one], which IC50 is on record?
**A.** The IC50 was over 2 nM.

**Q.** For `COc1cc(C(=O)NC[C@H](C)O)ccc1Nc1ncc2c(n1)N(C1CCCCC1)CC(F)(F)C(=O)N2C` [Compound 63, (S)-4-(9-cyclohexyl-7,7-difluoro-5-methyl-6-oxo-6,7,8,9-tetrahydro-5H-pyrimido[4,5-b][1,4]diazepin-2-ylamino)-N-(2-hydroxypropyl)-3-methoxybenzamide], which IC50 is on record?
**A.** The IC50 was at most 2 nM.

**Q.** `COc1cc(C(=O)NN2CCOCC2)ccc1Nc1ncc2c(n1)N(C1CCCCC1)CC(F)(F)C(=O)N2C` [Compound 65, 4-(9-cyclohexyl-7,7-difluoro-5-methyl-6-oxo-6,7,8,9-tetrahydro-5H-pyrimido[4,5-b][1,4]diazepin-2-ylamino)-3-methoxy-N-morpholinobenzamide] was tested. Which IC50 did it give?
**A.** Its IC50 is at most 2 nM.

**Q.** With `COc1cc(C(=O)NC2CCN(C)CC2)ccc1Nc1ncc2c(n1)N(C1CCCCC1)CC(F)(F)C(=O)N2C` [Compound 33, 4-(9-cyclohexyl-7,7-difluoro-5-methyl-6-oxo-6,7,8,9-tetrahydro-5H-pyrimido[4,5-b][1,4]diazepin-2-ylamino)-3-methoxy-N-(1-methylpiperidin-4-yl)benzamide] as the molecule, how does the IC50 read?
**A.** Its IC50 is at most 2 nM.

**Q.** Which IC50 does the source give for `COc1cc(C(=O)NN2CCN(C(C)C)CC2)ccc1Nc1ncc2c(n1)N(C1CCCCC1)CC(F)(F)C(=O)N2C` [Compound 79, 4-(9-cyclohexyl-7,7-difluoro-5-methyl-6-oxo-6,7,8,9-tetrahydro-5H-pyrimido[4,5-b][1,4]diazepin-2-ylamino)-N-(4-isopropylpiperazin-1-yl)-3-methoxybenzamide] here?
**A.** The IC50 was at most 2 nM.

**Q.** `COc1cc(C(=O)NC2CN(C(C)=O)C2)ccc1Nc1ncc2c(n1)N(C1CCCCC1)CC(F)(F)C(=O)N2C` [Compound 69, N-(1-acetylazetidin-3-yl)-4-(9-cyclohexyl-7,7-difluoro-5-methyl-6-oxo-6,7,8,9-tetrahydro-5H-pyrimido[4,5-b][1,4]diazepin-2-ylamino)-3-methoxybenzamide] was tested. Which IC50 did it give?
**A.** Its IC50 is at most 2 nM.

**Q.** For `CCC1(F)CN(C2CCCCC2)c2nc(Nc3ccc(C(=O)NC4CN(C)C4)cc3OC)ncc2N(C)C1=O` (centres unmarked) [Compound 97, 4-(9-Cyclohexyl-7-ethyl-7-fluoro-5-methyl-6-oxo-6,7,8,9-tetrahydro-5H-pyrimido[4,5-b][1,4]diazepin-2-ylamino)-3-methoxy-N-(1-methylazetidin-3-yl)benzamide], which IC50 is on record?
**A.** Its IC50 is over 2 nM.

**Q.** How did the IC50 turn out when `COc1cc(C(=O)NC2CCCN(C)CC2)ccc1Nc1ncc2c(n1)N(C1CCCC1)CC(F)(F)C(=O)N2C` (centres unmarked) [Compound 15, 4-(9-cyclopentyl-7,7-difluoro-5-methyl-6-oxo-6,7,8,9-tetrahydro-5H-pyrimido[4,5-b][1,4]diazepin-2-ylamino)-3-methoxy-N-(1-methylazepan-4-yl)benzamide] was run?
**A.** The IC50 was at most 2 nM.

**Q.** How did the IC50 turn out when `CCN1CC(NC(=O)c2ccc(Nc3ncc4c(n3)N(C3CCCCC3)CC(F)(F)C(=O)N4C)c(OC)c2)C1` [Compound 126, 4-(9-cyclohexyl-7,7-difluoro-5-methyl-6-oxo-6,7,8,9-tetrahydro-5H-pyrimido[4,5-b][1,4]diazepin-2-ylamino)-N-(1-ethylazetidin-3-yl)-3-methoxybenzamide] was run?
**A.** The IC50 was over 2 nM.
